Measurements reported in ChEMBL document CHEMBL6153094, “Rationally designed highly amphipathic antimicrobial peptides demonstrating superior bacterial selectivity relative to the corresponding α-helix peptide” (Eur J Med Chem, 2025).
Converted amounts (≈) assume the structure as drawn. The source made the active and inactive calls. No cut-off for these calls is given here.

Legend:
[1] = system: Staphylococcus epidermidis; experiment: Antimicrobial activity against Staphylococcus epidermidis ATCC 12228 assessed as inhibition of visible bacterial growth incubated for 18 hrs by broth-dilution method; format: functional
Bacillus subtilis = experiment: Antimicrobial activity against Bacillus subtilis ATCC 23857 assessed as inhibition of visible bacterial growth incubated for 18 hrs by broth microdilution method; format: functional
Enterococcus faecalis = experiment: Antimicrobial activity against Enterococcus faecalis ATCC 29212 assessed as inhibition of visible bacterial growth incubated for 18 hrs by broth-dilution method; format: functional
Acinetobacter baumannii = experiment: Antimicrobial activity against Acinetobacter baumannii ATCC 19606 assessed as inhibition of visible bacterial growth incubated for 18 hrs by broth microdilution method; format: functional
Klebsiella pneumoniae = experiment: Antimicrobial activity against Klebsiella pneumoniae ATCC 700603 assessed as inhibition of visible bacterial growth incubated for 18 hrs by broth microdilution method; format: functional
Pseudomonas aeruginosa = experiment: Antimicrobial activity against Pseudomonas aeruginosa ATCC 27853 assessed as inhibition of visible bacterial growth incubated for 18 hrs by broth microdilution method; format: functional
Staphylococcus aureus [2] = experiment: Antimicrobial activity against Staphylococcus aureus ATCC 25923 assessed as inhibition of visible bacterial growth incubated for 18 hrs by broth-dilution method; format: functional
Escherichia coli = experiment: Antimicrobial activity against Escherichia coli ATCC 25922 assessed as inhibition of visible bacterial growth incubated for 18 hrs by broth microdilution method; format: functional
Staphylococcus aureus [3] = experiment: (§1) Antibacterial activity against methicillin-resistant Staphylococcus aureus ATCC 33591 infected in male Balb/c mouse model of full thickness skin wound assessed as decrease in cell necrosis in skin at 1 mg/ml pre-infected with bacteria for 1 hrs followed by compound administration at 1,12 and 36 hrs post infection and measured after 10 days by H and E staining based analysis; format: functional, organism-based; conditions: time 10.0 day
Staphylococcus aureus [4] = experiment: as §1, with “reduction” for “decrease”, “bacterial load” for “cell necrosis”, “60 hrs post infection” for “after 10 days”, “agar plate method” for “H and E staining based analysis”; format: functional, organism-based; conditions: time 59.0 hrs
Staphylococcus aureus [5] = experiment: Antimicrobial activity against methicillin-drug resistant Staphylococcus aureus ATCC 33591 assessed as concentration required to eliminate 90% bacteria incubated for 18 hrs by broth-microdilution method; format: functional
Staphylococcus aureus [6] = experiment: as §1, with “reduction” for “decrease”, “number of inflammatory cells” for “cell necrosis”; format: functional, organism-based; conditions: time 10.0 day
Staphylococcus aureus [7] = experiment: Antibacterial activity against methicillin-resistant Staphylococcus aureus ATCC 33591 infected in male Balb/c mouse model of full thickness skin wound assessed as reduction in bacteria in skin wound at 1 mg/ml pre-infected with bacteria for 1 hrs followed by compound administration at 1,12 and 36 hrs post infection and measured after 10 days by photographic analysis; format: functional, organism-based; conditions: time 10.0 day
[8] = Hemolytic activity in mouse red blood cells assessed as hemolysis incubated for 1 hrs by absorbance based assay; format: toxicity, cell-based; conditions: erythrocyte

| Molecule | MIC [1] [µM] | MIC (Bacillus subtilis) [µM] | MIC (Enterococcus faecalis) [µM] | MIC (Acinetobacter baumannii) [µM] | MIC (Klebsiella pneumoniae) [µM] | MIC (Pseudomonas aeruginosa) [µM] | MIC (Staphylococcus aureus [2]) [µM] | MIC (Escherichia coli) [µM] | Activity (Staphylococcus aureus [3]) | Activity (Staphylococcus aureus [4]) | EC90 (Staphylococcus aureus [5]) [µM] | Activity (Staphylococcus aureus [6]) | Activity (Staphylococcus aureus [7]) | HC10 [8] [µM] | Activity [8] |
| --- | --- | --- | --- | --- | --- | --- | --- | --- | --- | --- | --- | --- | --- | --- | --- |
| CO[C@H]1/C=C/O[C@@]2(C)Oc3c(C)c(O)c4c(O)c(c(/C=N/N5CCN(C)CC5)c(O)c4c3C2=O)NC(=O)/C(C)=C\C=C\[C@H](C)[C@H](O)[C@@H](C)[C@@H](O)[C@@H](C)[C@H](OC(C)=O)[C@@H]1C [RIFAMPIN] | < 1 | < 1 | < 1 | 1 (≈ 0.823 µg/mL) | 32 (≈ 26.3 µg/mL) | 32 (≈ 26.3 µg/mL) | < 1 | 8 (≈ 6.58 µg/mL) | – | – | – | – | – | – | – |
| CN[C@H](CC(C)C)C(=O)N[C@H]1C(=O)N[C@@H](CC(N)=O)C(=O)N[C@H]2C(=O)N[C@H]3C(=O)N[C@H](C(=O)N[C@H](C(=O)O)c4cc(O)cc(O)c4-c4cc3ccc4O)[C@H](O)c3ccc(c(Cl)c3)Oc3cc2cc(c3O[C@@H]2O[C@H](CO)[C@@H](O)[C@H](O)[C@H]2O[C@H]2C[C@](C)(N)[C@H](O)[C@H](C)O2)Oc2ccc(cc2Cl)[C@H]1O [VANCOMYCIN] | < 1 | < 1 | 2 (≈ 2.9 µg/mL) | 32 (≈ 46.4 µg/mL) | 128 (≈ 186 µg/mL) | > 128 | < 1 | 128 (≈ 186 µg/mL) | Active | Active | 0.289 | Active | Active; Obvious Facilitation Of Wound Healing Not Observed | – | – |
| H-RRWFRRWERWFE-NH2 | 8 | 4 | 128 | 32 | 16 | 16 | 32 | 16 | – | – | – | – | – | > 256 | – |
| H-RRWFRRWFRRWF-NH2 | 8 | 8 | 16 | 16 | 16 | 16 | 8 | 16 | – | – | – | – | – | 16.44 | – |
| H-RRWFRRWFRWFF-NH2 | 4 | 2 | 32 | 32 | 32 | 16 | 32 | 32 | – | – | – | – | – | – | Toxic |
| H-RRWFRRWGRWFG-NH2 [listing 1 of 2 here] | – | – | – | – | – | – | – | – | – | – | – | – | – | > 256 | – |
| H-RRWFRRWGRWFG-NH2 [listing 2 of 2 here] | 2 | 2 | 32 | 32 | 8 | 2 | 16 | 8 | – | – | – | – | – | – | – |
| H-RRWFRRWIRWFI-NH2 | 4 | 1 | 16 | 16 | 16 | 16 | 16 | 16 | – | – | – | – | – | 2.39 | – |
| H-RRWFRRWKRWFK-NH2 | 2 | 1 | 32 | 16 | 4 | 2 | 4 | 8 | – | – | – | – | – | > 256 | – |
| H-RRWFRRWLRWFL-NH2 | 2 | 2 | 32 | 32 | 32 | 16 | 16 | 16 | – | – | – | – | – | – | Toxic |
| H-RRWFRRWTRWFT-NH2 | 2 | 1 | 16 | 8 | 8 | 4 | 8 | 8 | – | – | – | – | – | > 256 | – |
| H-RRWFRRWWRWFW-NH2 | 4 | 4 | 32 | 32 | 64 | 32 | 32 | 32 | – | – | – | – | – | – | Toxic |
